# Tested on: cell lines NIH3T3, HepG2, and Raw 264.7 contaminated with mycoplasma
# Assay: Removing mycoplasma from contaminated cell lines with AM3, PCR with mycoplasma diagnosis kit
# Format: cell-based
# Conditions: 20 μg/ml, two 3-day cultures; NIH3T3, HepG2, Raw 264.7
# Procedure: Various cell lines constructed in laboratories of colleges located in Seoul were obtained. The obtained cell lines were cultured in a DMEM (GIBCO BRL, Cat. No. 12800-058) for 3 days, and then the cells were harvested. PCR was performed thereon with a mycoplasma diagnosis kit (Promokine, Germany; Cellsafe Co., Ltd., Korea) according to the enclosed protocol. The resulting PCR products were electrophoresed on a 1% agarose gel to measure the mycoplasma contamination. As a result, it was confirmed that three cell strains, i.e., NIH3T3, HepG2, Raw 264.7 cell lines, were infected with mycoplasma (see FIG. 1).
# (§1) The cell lines NIH3T3, HepG2, and Raw 264.7, which were confirmed to be contaminated with mycoplasma, were each inoculated at a concentration of 1×10^6 cells on a T-75 culture flask (NUNC, Cat. No. 156367). DMEM (GIBCO BRL, Cat. No. 12800-058) containing 10% or less of serum (GIBCO BRL, Cat. No. 10082-147) was added thereto, followed by culturing for 3 days.
# as §1, with “thereto and then 20 μg/ml of amphidinol” for “thereto, followed by culturing for”, “(AM3) was added thereto. […]” for “days.”
smiles,measurement,value
"C=C/C=C/CC/C=C/C=C/C=C/CC/C=C/C(O)C(O)C1OC(C(O)C(O)C(=C)CCC(O)C2CC(O)C(O)C(C(O)C(O)/C=C(\C)CCC(O)CC(O)C(O)C(C)CC(O)C(O)CCCCCC(O)CCCC(O)/C=C/CC(O)/C=C/CC(O)CO)O2)CC(O)C1O (stereo not shown) [AM3, amphidinol 3]",mycoplasma contamination,completely removed
